Tests used:
[1] = biological target: T1, Oatp2 (Solute carrier organic anion transporter family member 1A4) (Rattus norvegicus, UniProt O35913); experiment: in vitro; details: pig, Oatp2-expressing LLC-PK1 cells, probe Digoxin
T1 sequence (O35913 whole entry): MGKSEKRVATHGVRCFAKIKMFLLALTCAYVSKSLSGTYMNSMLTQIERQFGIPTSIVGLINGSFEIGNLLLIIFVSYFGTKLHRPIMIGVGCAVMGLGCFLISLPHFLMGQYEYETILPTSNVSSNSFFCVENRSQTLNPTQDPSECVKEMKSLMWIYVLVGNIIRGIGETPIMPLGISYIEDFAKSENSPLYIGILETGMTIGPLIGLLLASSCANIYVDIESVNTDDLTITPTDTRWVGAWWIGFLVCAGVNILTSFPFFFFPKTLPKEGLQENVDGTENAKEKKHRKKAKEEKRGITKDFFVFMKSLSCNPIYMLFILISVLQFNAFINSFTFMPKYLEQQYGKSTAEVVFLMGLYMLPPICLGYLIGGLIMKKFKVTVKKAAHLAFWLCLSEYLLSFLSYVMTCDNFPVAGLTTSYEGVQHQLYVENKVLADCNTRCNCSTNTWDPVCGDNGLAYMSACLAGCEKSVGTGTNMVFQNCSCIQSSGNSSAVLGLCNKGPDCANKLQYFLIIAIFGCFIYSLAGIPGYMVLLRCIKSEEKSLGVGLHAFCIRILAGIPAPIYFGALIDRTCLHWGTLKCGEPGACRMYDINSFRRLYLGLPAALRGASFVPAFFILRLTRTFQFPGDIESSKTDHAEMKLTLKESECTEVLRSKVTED

[2] = biological target: T2, Oatp1 (Solute carrier organic anion transporter family member 1A1) (Rattus norvegicus, UniProt P46720); experiment: in vitro; details: pig, Oatp1-expressing LLC-PK1 cells, probe E217betaG
T2 sequence (P46720 whole entry): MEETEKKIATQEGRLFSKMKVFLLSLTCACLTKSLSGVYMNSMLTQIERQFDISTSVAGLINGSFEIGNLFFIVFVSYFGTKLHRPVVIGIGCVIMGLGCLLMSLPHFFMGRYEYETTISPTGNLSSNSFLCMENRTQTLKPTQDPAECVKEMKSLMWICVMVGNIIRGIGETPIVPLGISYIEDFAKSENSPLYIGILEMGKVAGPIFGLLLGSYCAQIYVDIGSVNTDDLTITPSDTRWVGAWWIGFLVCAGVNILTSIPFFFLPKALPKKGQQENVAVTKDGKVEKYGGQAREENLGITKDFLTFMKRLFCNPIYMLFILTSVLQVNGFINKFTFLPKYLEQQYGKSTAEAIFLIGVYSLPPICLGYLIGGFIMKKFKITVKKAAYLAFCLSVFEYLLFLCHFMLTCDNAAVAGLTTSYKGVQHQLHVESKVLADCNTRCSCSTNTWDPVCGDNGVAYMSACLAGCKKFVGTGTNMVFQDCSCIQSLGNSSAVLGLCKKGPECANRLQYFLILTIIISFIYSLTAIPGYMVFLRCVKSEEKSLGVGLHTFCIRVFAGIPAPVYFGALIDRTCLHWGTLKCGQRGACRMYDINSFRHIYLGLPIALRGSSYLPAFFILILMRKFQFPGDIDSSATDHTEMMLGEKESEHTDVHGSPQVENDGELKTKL

[3] = biological target: T3, Solute carrier organic anion transporter family member 1A4 (Rattus norvegicus, UniProt O35913); experiment: TP_TRANSPORTER: inhibition of Digoxin uptake in Oatp2-expressing LLC-PK1 cells; assay type: functional, cell-based
T3 sequence (O35913 whole entry): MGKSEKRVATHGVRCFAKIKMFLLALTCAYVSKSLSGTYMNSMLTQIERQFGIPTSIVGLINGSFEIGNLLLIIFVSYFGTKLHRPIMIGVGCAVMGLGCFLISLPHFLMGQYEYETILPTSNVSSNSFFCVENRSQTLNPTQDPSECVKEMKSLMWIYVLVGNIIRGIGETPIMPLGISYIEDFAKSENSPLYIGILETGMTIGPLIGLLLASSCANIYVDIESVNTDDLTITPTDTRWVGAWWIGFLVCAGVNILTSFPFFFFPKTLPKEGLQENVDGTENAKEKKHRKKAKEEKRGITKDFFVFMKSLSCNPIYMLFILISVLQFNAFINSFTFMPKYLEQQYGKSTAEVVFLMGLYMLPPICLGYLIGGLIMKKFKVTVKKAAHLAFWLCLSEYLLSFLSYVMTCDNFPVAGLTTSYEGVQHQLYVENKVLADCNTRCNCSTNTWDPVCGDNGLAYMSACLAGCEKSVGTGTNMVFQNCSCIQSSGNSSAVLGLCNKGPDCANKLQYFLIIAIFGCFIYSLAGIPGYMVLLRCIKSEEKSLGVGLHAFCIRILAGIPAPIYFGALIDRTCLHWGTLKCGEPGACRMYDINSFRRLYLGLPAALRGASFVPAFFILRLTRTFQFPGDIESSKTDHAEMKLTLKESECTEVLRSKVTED

[4] = biological target: T4, Solute carrier organic anion transporter family member 1A1 (Rattus norvegicus, UniProt P46720); experiment: TP_TRANSPORTER: inhibition of E217betaG uptake in Oatp1-expressing LLC-PK1 cells; assay type: functional, cell-based
T4 sequence (P46720 whole entry): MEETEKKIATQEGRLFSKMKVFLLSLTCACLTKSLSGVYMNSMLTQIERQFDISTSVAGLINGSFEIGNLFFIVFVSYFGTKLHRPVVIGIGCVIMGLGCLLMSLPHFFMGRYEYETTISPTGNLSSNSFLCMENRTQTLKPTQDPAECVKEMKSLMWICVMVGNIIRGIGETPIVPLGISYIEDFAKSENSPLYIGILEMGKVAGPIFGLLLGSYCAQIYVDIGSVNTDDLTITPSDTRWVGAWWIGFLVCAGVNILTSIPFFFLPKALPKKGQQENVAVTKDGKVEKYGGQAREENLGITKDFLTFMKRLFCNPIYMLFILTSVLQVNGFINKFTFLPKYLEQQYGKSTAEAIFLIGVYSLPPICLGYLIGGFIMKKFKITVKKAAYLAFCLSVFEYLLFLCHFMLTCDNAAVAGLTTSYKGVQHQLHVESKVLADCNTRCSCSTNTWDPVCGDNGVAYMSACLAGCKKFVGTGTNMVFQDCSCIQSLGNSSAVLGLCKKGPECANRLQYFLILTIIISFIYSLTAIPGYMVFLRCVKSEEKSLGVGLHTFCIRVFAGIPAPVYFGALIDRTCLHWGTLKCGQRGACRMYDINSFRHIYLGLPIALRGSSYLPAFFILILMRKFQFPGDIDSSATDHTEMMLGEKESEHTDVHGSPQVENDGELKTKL

[5] = biological target: T2, Oatp1 (Solute carrier organic anion transporter family member 1A1); experiment: TP_TRANSPORTER: inhibition of E217betaG uptake (E217betaG: 0.1 uM, Tolbutamide: 1000 uM) in Oatp1-expressing LLC-PK1 cells; assay type: functional, cell-based; design: scale not given: the % may be the effect or the level left; details: pig, probe E217betaG, read-out: Activity
[6] = biological target: T1, Oatp2 (Solute carrier organic anion transporter family member 1A4); experiment: TP_TRANSPORTER: inhibition of Digoxin uptake (Digoxin: 0.05 uM, Tolbutamide: 1000 uM) in Oatp2-expressing LLC-PK1 cells; assay type: functional, cell-based; design: scale not given: the % may be the effect or the level left; details: pig, probe Digoxin, read-out: Activity
[7] = substrate: C[C@]12CC[C@@H]3c4ccc(O)cc4CC[C@H]3[C@@H]1CC[C@@H]2O[C@@H]1O[C@H](C(=O)O)[C@@H](O)[C@H](O)[C@H]1O; experiment: TP_TRANSPORTER: uptake in Oatp1-expressing LLC-PK1 cells; assay type: functional, cell-based
[8] = substrate: C[C@H]1O[C@@H](O[C@H]2[C@@H](O)C[C@H](O[C@H]3[C@@H](O)C[C@H](O[C@H]4CC[C@@]5(C)[C@H](CC[C@@H]6[C@@H]5C[C@@H](O)[C@]5(C)[C@@H](C7=CC(=O)OC7)CC[C@]65O)C4)O[C@@H]3C)O[C@@H]2C)C[C@H](O)[C@@H]1O; experiment: TP_TRANSPORTER: uptake in Oatp2-expressing LLC-PK1 cells; assay type: functional, cell-based

For COc1ccc2cc([C@H](C)C(=O)O)ccc2c1 [NAPROXEN], which activity at 1000 µM [1] is on record?
The activity at 1000 µM was 52.2%.

What about the activity at 1000 µM [2] of the same molecule?
The activity at 1000 µM was 19.9%.

With C=C[C@H]1C[N@@]2CC[C@H]1C[C@@H]2[C@@H](O)c1ccnc2ccc(OC)cc12 [QUINIDINE] as the molecule, how does the Ki [3] read?
Its Ki is 120 µM.

C=C[C@H]1C[N@@]2CC[C@H]1C[C@H]2[C@H](O)c1ccnc2ccc(OC)cc12 [QUININE] was tested. Which Ki [3] did it give?
The Ki was 3.81 µM.

CO[C@H]1/C=C/O[C@@]2(C)Oc3c(C)c(O)c4c(O)c(c(/C=N/N5CCN(C)CC5)c(O)c4c3C2=O)NC(=O)/C(C)=C\C=C\[C@H](C)[C@H](O)[C@@H](C)[C@@H](O)[C@@H](C)[C@H](OC(C)=O)[C@@H]1C [RIFAMPIN] was tested. Which Ki [3] did it give?
Its Ki is 1.46 µM.

And the Ki [4]?
The Ki was 18.2 µM.

How did the activity at 1000 µM [5] turn out when CCCCNC(=O)NS(=O)(=O)c1ccc(C)cc1 [TOLBUTAMIDE] was run?
The activity at 1000 µM was 32.9%.

What about the activity at 1000 µM [6] of the same molecule?
Its activity at 1000 µM is 47.3%.

B1: Solute carrier organic anion transporter family member 1A1 (Rattus norvegicus) (protein)
chain: MEETEKKIATQEGRLFSKMKVFLLSLTCACLTKSLSGVYMNSMLTQIERQFDISTSVAGLINGSFEIGNLFFIVFVSYFGTKLHRPVVIGIGCVIMGLGCLLMSLPHFFMGRYEYETTISPTGNLSSNSFLCMENRTQTLKPTQDPAECVKEMKSLMWICVMVGNIIRGIGETPIVPLGISYIEDFAKSENSPLYIGILEMGKVAGPIFGLLLGSYCAQIYVDIGSVNTDDLTITPSDTRWVGAWWIGFLVCAGVNILTSIPFFFLPKALPKKGQQENVAVTKDGKVEKYGGQAREENLGITKDFLTFMKRLFCNPIYMLFILTSVLQVNGFINKFTFLPKYLEQQYGKSTAEAIFLIGVYSLPPICLGYLIGGFIMKKFKITVKKAAYLAFCLSVFEYLLFLCHFMLTCDNAAVAGLTTSYKGVQHQLHVESKVLADCNTRCSCSTNTWDPVCGDNGVAYMSACLAGCKKFVGTGTNMVFQDCSCIQSLGNSSAVLGLCKKGPECANRLQYFLILTIIISFIYSLTAIPGYMVFLRCVKSEEKSLGVGLHTFCIRVFAGIPAPVYFGALIDRTCLHWGTLKCGQRGACRMYDINSFRHIYLGLPIALRGSSYLPAFFILILMRKFQFPGDIDSSATDHTEMMLGEKESEHTDVHGSPQVENDGELKTKL
Which Km [7] does the source give for B1 here?
The Km was 11.2 µM.

B2: Solute carrier organic anion transporter family member 1A4 (Rattus norvegicus) (protein)
chain: MGKSEKRVATHGVRCFAKIKMFLLALTCAYVSKSLSGTYMNSMLTQIERQFGIPTSIVGLINGSFEIGNLLLIIFVSYFGTKLHRPIMIGVGCAVMGLGCFLISLPHFLMGQYEYETILPTSNVSSNSFFCVENRSQTLNPTQDPSECVKEMKSLMWIYVLVGNIIRGIGETPIMPLGISYIEDFAKSENSPLYIGILETGMTIGPLIGLLLASSCANIYVDIESVNTDDLTITPTDTRWVGAWWIGFLVCAGVNILTSFPFFFFPKTLPKEGLQENVDGTENAKEKKHRKKAKEEKRGITKDFFVFMKSLSCNPIYMLFILISVLQFNAFINSFTFMPKYLEQQYGKSTAEVVFLMGLYMLPPICLGYLIGGLIMKKFKVTVKKAAHLAFWLCLSEYLLSFLSYVMTCDNFPVAGLTTSYEGVQHQLYVENKVLADCNTRCNCSTNTWDPVCGDNGLAYMSACLAGCEKSVGTGTNMVFQNCSCIQSSGNSSAVLGLCNKGPDCANKLQYFLIIAIFGCFIYSLAGIPGYMVLLRCIKSEEKSLGVGLHAFCIRILAGIPAPIYFGALIDRTCLHWGTLKCGEPGACRMYDINSFRRLYLGLPAALRGASFVPAFFILRLTRTFQFPGDIESSKTDHAEMKLTLKESECTEVLRSKVTED
With B2 as the molecule, how does the Km [8] read?
The Km was 0.279 µM.

Reference: ChEMBL document CHEMBL2073782, “Comparative inhibitory effects of different compounds on rat oatpl (slc21a1)- and Oatp2 (Slc21a5)-mediated transport” (Pharm Res, 2002)
